Results reported in article PMC9851200, “Multiparameter phenotypic screening for endogenous TFEB and TFE3 translocation identifies novel chemical series modulating lysosome function” (Autophagy, 2022).
Like-named read-outs stand apart in the source and are kept apart here.

How the values were obtained:
Format in all cases: binding
[1] = molecular target: kinases (KINOMEscan panel) (Homo sapiens, UniProt P06213); conditions: kinase INSR; NEW KINOMEscan
[2] = molecular target: kinases (KINOMEscan panel) (Homo sapiens, UniProt P49137)
[3] = molecular target: kinases (KINOMEscan panel) (Homo sapiens, UniProt Q13557); conditions: kinase CAMK2D; NEW KINOMEscan
[4] = molecular target: kinases (KINOMEscan panel) (Homo sapiens, UniProt Q9UM73, C1156Y); conditions: kinase ALK(C1156Y); NEW KINOMEscan
[5] = molecular target: kinases (KINOMEscan panel) (Homo sapiens, UniProt P07332); conditions: kinase FES; NEW KINOMEscan
[6] = molecular target: T1, kinases (KINOMEscan panel) (Homo sapiens, UniProt Q9Y2U5); conditions: MAP3K2; NEW KINOMEscan
T1 sequence (Q9Y2U5 1-619): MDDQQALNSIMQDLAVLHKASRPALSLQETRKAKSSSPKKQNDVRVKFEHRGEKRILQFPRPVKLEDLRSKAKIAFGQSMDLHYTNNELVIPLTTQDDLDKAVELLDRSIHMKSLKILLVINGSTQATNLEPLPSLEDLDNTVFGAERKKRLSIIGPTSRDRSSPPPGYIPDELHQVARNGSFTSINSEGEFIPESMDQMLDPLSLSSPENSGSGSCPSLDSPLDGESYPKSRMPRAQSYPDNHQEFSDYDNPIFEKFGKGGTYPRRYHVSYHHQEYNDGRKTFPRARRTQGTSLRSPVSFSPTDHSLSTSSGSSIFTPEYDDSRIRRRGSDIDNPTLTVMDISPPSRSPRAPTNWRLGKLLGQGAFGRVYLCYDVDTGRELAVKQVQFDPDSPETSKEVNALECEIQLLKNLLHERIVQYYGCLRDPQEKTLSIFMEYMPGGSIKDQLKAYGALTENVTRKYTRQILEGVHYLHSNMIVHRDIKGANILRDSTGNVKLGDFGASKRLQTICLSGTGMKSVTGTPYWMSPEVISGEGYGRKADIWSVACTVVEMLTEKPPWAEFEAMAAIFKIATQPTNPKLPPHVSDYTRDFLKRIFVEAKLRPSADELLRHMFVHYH

[7] = molecular target: T2, kinases (KINOMEscan panel) (Homo sapiens, UniProt Q6ZWH5); conditions: NEW KINOMEscan
T2 sequence (Q6ZWH5 1-1172): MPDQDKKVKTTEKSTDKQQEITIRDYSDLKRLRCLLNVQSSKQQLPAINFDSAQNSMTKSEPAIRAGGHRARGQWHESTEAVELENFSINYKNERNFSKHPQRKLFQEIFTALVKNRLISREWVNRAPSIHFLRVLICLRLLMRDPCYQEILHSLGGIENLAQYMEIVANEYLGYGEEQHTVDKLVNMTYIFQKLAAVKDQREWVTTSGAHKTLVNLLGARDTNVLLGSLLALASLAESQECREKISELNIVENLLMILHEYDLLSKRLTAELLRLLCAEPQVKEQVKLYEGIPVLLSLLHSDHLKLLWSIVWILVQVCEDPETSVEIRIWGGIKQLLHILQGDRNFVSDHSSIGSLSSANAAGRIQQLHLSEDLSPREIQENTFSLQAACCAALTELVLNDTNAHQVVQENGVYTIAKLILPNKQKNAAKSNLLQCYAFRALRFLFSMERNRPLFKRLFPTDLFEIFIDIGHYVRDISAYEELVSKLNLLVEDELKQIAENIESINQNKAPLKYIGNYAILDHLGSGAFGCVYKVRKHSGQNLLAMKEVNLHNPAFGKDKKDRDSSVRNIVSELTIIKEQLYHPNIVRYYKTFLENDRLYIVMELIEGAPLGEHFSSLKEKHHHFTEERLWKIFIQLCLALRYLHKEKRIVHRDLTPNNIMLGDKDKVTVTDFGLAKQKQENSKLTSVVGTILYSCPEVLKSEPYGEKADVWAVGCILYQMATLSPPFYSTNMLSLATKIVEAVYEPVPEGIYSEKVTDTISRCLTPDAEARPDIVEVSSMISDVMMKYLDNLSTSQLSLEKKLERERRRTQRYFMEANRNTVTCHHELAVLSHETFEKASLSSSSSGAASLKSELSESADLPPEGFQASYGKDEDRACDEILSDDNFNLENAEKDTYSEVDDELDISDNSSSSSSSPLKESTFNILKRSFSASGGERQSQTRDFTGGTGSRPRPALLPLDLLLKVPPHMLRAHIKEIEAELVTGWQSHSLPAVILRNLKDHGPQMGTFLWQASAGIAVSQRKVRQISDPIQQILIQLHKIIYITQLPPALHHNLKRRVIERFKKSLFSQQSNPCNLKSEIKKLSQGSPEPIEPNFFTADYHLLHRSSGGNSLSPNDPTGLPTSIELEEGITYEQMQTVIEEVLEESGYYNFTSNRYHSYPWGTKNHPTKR

[8] = molecular target: kinases (KINOMEscan panel) (Homo sapiens, UniProt P00519, Y253F); conditions: kinase ABL1(Y253F)-phosphorylated; NEW KINOMEscan
[9] = molecular target: kinases (KINOMEscan panel) (Homo sapiens, UniProt Q9H2X6); conditions: NEW KINOMEscan
[10] = molecular target: kinases (KINOMEscan panel) (Homo sapiens, UniProt P21860); conditions: ERBB3; NEW KINOMEscan
Chain of kinases (KINOMEscan panel) (Homo sapiens, UniProt P21860) (P21860 20-1342): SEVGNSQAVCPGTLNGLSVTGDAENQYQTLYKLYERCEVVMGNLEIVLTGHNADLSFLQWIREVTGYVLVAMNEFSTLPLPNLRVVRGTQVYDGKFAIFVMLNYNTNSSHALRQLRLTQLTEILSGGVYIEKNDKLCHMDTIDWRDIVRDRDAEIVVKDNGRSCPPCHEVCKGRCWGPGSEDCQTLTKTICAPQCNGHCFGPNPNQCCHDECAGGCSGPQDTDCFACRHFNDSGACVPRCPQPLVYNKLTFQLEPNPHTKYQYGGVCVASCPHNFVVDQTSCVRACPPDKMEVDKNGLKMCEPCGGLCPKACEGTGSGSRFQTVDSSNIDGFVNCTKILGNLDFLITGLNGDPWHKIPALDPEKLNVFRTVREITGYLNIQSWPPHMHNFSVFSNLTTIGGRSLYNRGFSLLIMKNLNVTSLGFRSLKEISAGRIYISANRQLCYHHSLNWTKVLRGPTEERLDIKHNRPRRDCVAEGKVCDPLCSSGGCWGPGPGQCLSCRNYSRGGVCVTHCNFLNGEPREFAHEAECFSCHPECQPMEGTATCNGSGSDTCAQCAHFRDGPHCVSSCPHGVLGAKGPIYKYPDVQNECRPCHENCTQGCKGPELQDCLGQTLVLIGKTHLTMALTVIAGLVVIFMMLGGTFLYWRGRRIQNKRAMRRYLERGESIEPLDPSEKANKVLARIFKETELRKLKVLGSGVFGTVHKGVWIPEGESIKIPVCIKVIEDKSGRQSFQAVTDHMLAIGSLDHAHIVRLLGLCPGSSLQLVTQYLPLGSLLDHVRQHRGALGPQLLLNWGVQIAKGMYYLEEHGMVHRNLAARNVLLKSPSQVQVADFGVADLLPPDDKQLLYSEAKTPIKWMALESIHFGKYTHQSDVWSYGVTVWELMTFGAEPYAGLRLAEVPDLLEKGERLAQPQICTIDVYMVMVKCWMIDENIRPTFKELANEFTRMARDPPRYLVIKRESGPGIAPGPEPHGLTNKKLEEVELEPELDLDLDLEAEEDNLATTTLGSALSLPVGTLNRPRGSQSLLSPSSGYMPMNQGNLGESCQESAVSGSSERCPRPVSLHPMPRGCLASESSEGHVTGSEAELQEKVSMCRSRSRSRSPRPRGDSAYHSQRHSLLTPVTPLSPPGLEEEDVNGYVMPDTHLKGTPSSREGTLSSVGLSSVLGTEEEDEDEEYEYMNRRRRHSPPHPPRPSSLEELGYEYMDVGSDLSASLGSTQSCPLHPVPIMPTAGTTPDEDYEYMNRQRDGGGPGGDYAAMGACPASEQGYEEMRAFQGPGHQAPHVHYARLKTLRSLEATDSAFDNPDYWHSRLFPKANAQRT

Chain of kinases (KINOMEscan panel) (Homo sapiens, UniProt Q9UM73, C1156Y) (Q9UM73 19-1620 C1156Y): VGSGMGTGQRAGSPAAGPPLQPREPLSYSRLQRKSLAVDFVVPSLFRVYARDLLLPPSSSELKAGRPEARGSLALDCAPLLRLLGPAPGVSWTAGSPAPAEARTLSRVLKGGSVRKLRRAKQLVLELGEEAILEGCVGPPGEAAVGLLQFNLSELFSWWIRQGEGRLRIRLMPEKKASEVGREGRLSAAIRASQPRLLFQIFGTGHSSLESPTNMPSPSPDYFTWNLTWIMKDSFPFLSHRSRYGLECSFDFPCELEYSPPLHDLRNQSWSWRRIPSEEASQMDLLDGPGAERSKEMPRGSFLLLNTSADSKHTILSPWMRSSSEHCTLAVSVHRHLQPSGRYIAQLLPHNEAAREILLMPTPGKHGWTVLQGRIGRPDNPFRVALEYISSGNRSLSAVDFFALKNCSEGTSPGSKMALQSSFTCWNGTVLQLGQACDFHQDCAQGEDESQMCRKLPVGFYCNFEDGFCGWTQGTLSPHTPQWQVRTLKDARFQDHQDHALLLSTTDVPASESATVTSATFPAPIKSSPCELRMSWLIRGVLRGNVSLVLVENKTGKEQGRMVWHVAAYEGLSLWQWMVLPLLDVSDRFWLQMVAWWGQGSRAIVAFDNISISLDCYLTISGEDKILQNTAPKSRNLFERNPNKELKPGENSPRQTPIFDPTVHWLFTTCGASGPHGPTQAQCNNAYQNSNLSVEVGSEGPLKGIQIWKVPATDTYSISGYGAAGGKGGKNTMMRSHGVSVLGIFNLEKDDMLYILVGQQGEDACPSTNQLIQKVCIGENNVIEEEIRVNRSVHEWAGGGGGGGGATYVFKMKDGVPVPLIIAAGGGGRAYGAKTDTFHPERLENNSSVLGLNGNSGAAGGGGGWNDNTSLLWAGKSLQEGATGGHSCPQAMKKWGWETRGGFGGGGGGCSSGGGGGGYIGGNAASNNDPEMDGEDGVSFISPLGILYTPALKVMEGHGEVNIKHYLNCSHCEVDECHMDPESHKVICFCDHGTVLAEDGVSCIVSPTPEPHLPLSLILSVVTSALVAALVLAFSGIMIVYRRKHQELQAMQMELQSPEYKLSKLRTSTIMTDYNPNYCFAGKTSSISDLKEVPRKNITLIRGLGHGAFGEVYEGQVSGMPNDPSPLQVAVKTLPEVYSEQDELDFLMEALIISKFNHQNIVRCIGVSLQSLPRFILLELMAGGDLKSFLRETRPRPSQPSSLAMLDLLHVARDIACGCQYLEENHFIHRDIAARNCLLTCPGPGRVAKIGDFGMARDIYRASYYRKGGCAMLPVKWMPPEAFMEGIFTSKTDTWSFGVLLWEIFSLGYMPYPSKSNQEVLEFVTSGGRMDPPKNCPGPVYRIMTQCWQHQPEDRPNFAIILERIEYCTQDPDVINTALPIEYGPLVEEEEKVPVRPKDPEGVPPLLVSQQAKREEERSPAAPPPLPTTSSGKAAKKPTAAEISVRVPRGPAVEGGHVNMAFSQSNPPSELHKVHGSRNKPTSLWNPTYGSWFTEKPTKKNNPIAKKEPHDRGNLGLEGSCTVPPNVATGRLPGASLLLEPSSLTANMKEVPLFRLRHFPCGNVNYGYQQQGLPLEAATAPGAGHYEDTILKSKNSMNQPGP
Chain of kinases (KINOMEscan panel) (Homo sapiens, UniProt P49137) (P49137 whole entry): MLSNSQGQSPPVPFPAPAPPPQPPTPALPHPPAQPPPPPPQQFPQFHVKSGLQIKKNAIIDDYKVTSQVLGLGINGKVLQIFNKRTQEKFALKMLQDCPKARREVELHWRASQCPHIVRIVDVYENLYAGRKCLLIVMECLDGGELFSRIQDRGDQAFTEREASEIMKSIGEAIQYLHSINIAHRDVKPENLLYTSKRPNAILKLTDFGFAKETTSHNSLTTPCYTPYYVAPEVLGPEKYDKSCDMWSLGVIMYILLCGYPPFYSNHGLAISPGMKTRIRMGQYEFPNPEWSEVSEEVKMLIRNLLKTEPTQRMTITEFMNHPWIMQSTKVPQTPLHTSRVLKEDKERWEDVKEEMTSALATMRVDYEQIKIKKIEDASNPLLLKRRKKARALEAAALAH
Chain of kinases (KINOMEscan panel) (Homo sapiens, UniProt Q9H2X6) (Q9H2X6 whole entry): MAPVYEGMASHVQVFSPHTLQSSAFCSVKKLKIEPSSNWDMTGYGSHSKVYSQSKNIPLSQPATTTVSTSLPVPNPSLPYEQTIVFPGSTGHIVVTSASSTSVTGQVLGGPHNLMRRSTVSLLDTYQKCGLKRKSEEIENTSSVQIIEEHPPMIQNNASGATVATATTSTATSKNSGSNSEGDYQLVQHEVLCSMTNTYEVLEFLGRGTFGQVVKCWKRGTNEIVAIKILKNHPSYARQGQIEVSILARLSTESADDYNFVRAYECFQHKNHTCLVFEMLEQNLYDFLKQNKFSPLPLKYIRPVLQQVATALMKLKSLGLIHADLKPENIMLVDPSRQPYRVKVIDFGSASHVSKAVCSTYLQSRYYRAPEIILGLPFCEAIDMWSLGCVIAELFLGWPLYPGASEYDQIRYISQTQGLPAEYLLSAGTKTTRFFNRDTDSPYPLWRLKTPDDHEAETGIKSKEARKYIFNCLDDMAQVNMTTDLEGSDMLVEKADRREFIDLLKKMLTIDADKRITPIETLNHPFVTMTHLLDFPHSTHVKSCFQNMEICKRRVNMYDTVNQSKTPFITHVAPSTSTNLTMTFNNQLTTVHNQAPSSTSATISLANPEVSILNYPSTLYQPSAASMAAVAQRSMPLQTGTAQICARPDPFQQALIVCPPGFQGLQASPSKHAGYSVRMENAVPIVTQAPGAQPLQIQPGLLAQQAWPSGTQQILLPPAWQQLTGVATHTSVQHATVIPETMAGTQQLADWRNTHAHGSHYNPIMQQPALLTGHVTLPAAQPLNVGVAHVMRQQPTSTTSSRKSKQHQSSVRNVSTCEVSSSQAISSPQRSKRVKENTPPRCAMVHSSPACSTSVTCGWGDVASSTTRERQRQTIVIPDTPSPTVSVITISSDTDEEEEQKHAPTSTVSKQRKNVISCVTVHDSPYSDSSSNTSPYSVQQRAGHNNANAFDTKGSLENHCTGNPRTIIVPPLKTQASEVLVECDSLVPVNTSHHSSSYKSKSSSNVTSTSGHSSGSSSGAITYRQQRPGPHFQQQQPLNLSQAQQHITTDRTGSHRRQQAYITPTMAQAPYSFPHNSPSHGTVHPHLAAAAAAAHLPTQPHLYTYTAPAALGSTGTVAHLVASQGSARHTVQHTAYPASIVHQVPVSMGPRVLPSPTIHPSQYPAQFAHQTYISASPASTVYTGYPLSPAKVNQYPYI
Chain of kinases (KINOMEscan panel) (Homo sapiens, UniProt Q13557) (Q13557 whole entry): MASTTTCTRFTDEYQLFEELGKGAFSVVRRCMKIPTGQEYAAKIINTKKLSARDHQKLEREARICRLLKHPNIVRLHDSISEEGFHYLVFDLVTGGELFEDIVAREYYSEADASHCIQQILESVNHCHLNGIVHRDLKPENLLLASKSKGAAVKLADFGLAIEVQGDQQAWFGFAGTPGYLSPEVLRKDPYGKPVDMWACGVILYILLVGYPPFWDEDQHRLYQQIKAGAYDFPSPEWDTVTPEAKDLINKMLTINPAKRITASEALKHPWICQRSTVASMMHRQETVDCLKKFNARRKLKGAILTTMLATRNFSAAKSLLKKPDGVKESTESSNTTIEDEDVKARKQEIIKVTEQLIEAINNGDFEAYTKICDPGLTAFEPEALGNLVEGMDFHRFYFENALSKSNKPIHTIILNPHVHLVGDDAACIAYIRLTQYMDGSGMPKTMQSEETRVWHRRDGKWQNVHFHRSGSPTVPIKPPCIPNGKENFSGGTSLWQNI

SMILES | KINOMEscan INSR [1] | KINOMEscan MAPKAPK2 [2] | KINOMEscan CAMK2D [3] | KINOMEscan ALK(C1156Y) [4] | KINOMEscan FES [5] | KINOMEscan MAP3K2 [6] | KINOMEscan NEK10 [7] | KINOMEscan ABL1(Y253F)-phosphorylated [8] | KINOMEscan HIPK2 [9] | KINOMEscan ERBB3 [10] | KINOMEscan MAPKAPK2 ([2]; kinase MAPKAPK2, NEW KINOMEscan)
Cc1cccc(-c2nc(N(C)c3ccc4ncsc4c3)c3ccccc3n2)n1 [NK-161] | 2 | 0 | 0 | 2 | 4 | 0 | 17 | 0 | 28 | 11 | 
Cc1cccc(-c2nc(Nc3ccc4nn(C)cc4c3)c3ccccc3n2)n1 [NK167] | 0 |  | 0 | 11 | 0 | 0 | 11 | 0 | 33 | 0 | 0
